Where “and” joins values, the source holds several entries; their conditions need not be identical. Equal values may be shown once. Blank lines part the entries; values can stand above or below the compound they belong to.
Experiments:
[1] = target: T1, gastrin receptors or type-B cholecystokinin (CCK-B) receptors (Oryctolagus cuniculus, UniProt P46627); experiment: Inhibition of the gastrin-induced increase of cytosolic calcium in rabbit gastric mucous-membrane cells (Fura 2); type: cell-based; settings: for Ratio IC50 Binding cortex / IC50 (gastric mucous cells): binding values taken from Table 3; for CCK-B-antagonistic activity IC50 (II): data taken from Table 4 (rabbit gastric mucous cells), reprinted in Table 6; for IC50, inhibition of the increase of cytosolic calcium: rabbit gastric mucous cells enriched in parietal cells, gastrin 5×10^-8
T1 construct: Rabbit gastric mucous-membrane cells were prepared by conventional techniques; endogenous in cells; host or cells: freshly isolated rabbit gastric mucosal cells, enriched by elutriation to about 70% parietal cells
T1 sequence (P46627 1-452): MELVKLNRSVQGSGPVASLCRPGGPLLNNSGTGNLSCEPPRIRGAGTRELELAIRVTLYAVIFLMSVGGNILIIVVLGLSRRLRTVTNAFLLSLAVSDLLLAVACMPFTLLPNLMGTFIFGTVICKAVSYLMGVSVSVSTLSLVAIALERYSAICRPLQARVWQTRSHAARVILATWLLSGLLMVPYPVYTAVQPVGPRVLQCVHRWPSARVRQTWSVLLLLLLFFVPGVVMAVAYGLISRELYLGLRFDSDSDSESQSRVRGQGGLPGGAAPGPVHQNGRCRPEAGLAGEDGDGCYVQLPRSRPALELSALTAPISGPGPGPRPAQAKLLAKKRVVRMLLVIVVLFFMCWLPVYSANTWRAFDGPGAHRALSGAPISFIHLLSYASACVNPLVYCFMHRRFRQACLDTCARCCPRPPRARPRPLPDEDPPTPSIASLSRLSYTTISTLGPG
Outline: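 Enzymatically dispersed (collagenase/pronase) rabbit gastric mucosal cells, loaded with Fura 2, were suspended at 0.8×10^6/ml in HEPES-buffered saline at 37 °C with stirring. Gastrin-induced cytosolic Ca²⁺ rise was measured with and without compound by fluorescence (excitation 340/380 nm, emission 505 nm).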

[2] = test system: mouse; experiment: Black and White Box test in the mouse (anxiolytic activity); type: in vivo; settings: for LIGHT TIME TOTAL TIME / LIGHT-DARK MOVEMENTS / MOV. DARK % TOTAL MOV. / TOTAL MOVEMENTS: 5 minutes; for anxiolytic activity, result in words: Black and White Box test, IP; for increase in the number of light-dark movements in comparison with the controls: summary over doses
Procedure: It has recently been postulated that the central CCK-B receptor has an important role in anxiety. This is in accordance with studies also carried out in man, which have shown that the central CCK-B mechanisms have an important function in the mediation of panic attacks [Bradwejn, H. et al; J. Psychopharmacology 6 (1992), 345]. […] This experimental model, which was carried out according to Costall et al [Pharm. Biochem. Behav. 32 (1989), 777-785], used a box with dimensions of 45×21×21(h) cm divided into 2 compartments which communicated with one another through a 13×5 cm hole. The smaller compartment (1/3 of the total area) had black walls, whereas the larger had transparent walls and was illuminated by a lamp which was placed 20 cm above the box and supplied light at 20W. Under the floor there was an activity meter which recorded the movements performed by the animal in the individual compartments. The experiment was started by placing the animal in the centre of the illuminated box; as well as movements, the time which the animal spent in the dark and in the light areas and the number of movements between the 2 compartments were then recorded for 5 minutes. A control animal generally preferred to stay in the dark compartment where it felt better protected from an unusual environmental situation which put it in a state of anxiety. In this experimental model, a compound having anxiolytic activity decreased the % of movements into the dark in comparison with the total movements, increased the movements between the two light-dark compartments, and increased the % of time spent in the light in comparison with the total time.
The results obtained are shown in Table 7, where the activities obtained with compounds 9, 21 and 51 are given, tested in comparison with diazepam.

[3] = test system: acid secretion induced by pentagastrin; experiment: Acid secretion induced by pentagastrin in the anaesthetized rat; type: in vivo; settings: for ED50: iv, 1 h, I.V. bolus, pentagastrin 30 mcg/kg/h, read-out: Activity (ID50), inhibition of the acid secretion induced by pentagastrin; for antigastrin activity relative to the diastereoisomer at the carbon atom (**): pentagastrin-induced acid secretion
Procedure: The activity of the compounds of the invention against gastric secretion performed by means of a mechanism with an antigastrin effect, was examined in vivo in anaesthetized rats with the use of male animals weighing about 200 g. Gastric secretion was stimulated with pentagastrin and Lai's method [Gut 5, (1964), 327-341 ] was used, with slight modification.
After tracheotomy, the oesophagus and duodenum were cannulated. A tepid solution (37° C.) of 0.25 mM NaOH was perfused and was passed through the stomach by means of a peristaltic pump at a constant flow-rate of 1 ml/minute. After stabilization for 20 minutes, the stimulant, dissolved in a physiological solution, was perfused for 120 minutes at a dose of 30 mcg/kg/h, in a volume of 0.95 ml/hour. After perfusion for 60 minutes (the basal stimulation), the product under test was administered intravenously (I.V.) as a bolus and perfusion of the stimulant was continued for a further 60 minutes. The acid secretion was recorded continuously as a function of time.
The activity of the product was evaluated as the percentage reduction of secreted acidity after the administration of the product, in comparison with the basal acidity measured during the first 60 minutes of collection in the presence of pentagastrin alone.
The antagonistic compounds tested were administered in various doses so that an ID50, that is, the dose (in mg/kg I.V.) which could inhibit the effect of pentagastrin by 50%, could be calculated.

Ratio IC50 Binding cortex / IC50 (gastric mucous cells) [1]: 3.0
CCK-B-antagonistic activity IC50 (II) [1]: 50 nM
IC50, inhibition of the increase of cytosolic calcium [1]: 50 nM
Structure (SMILES): O=C(CC[C@@H](NC(=O)c1cc(Cl)cc(Cl)c1)C(=O)N1CCC2(CCCC2)CC1)N[C@H](Cc1ccccc1)C(=O)O [Compound 9, (R,R)-1[(1-carboxy-2-phenylethyl)amino]-1 oxo-5-(8-azaspiro[4.5]decan-8-yl)-4-(3,5-dichloro-benzoylamino)-5-oxopentanoic acid]
EFF. % VS CONTROL (LIGHT TIME TOTAL TIME) ([2]; 0.1 mg/kg IP): 17%
EFF. % VS CONTROL (LIGHT-DARK MOVEMENTS) ([2]; 0.1 mg/kg IP): 6%
EFF. % VS CONTROL (MOV. DARK % TOTAL MOV.) ([2]; 0.1 mg/kg IP): 0%
LIGHT TIME TOTAL TIME ([2]; 0.1 mg/kg IP): 31.0%
LIGHT-DARK MOVEMENTS ([2]; 0.1 mg/kg IP): 16.1
MOV. DARK % TOTAL MOV. ([2]; 0.1 mg/kg IP): 59%
TOTAL MOVEMENTS ([2]; 0.1 mg/kg IP): 505
EFF. % VS CONTROL (LIGHT TIME TOTAL TIME) ([2]; 1.0 mg/kg IP): 36%
EFF. % VS CONTROL (LIGHT-DARK MOVEMENTS) ([2]; 1.0 mg/kg IP): 31%
EFF. % VS CONTROL (MOV. DARK % TOTAL MOV.) ([2]; 1.0 mg/kg IP): -7%
LIGHT TIME TOTAL TIME ([2]; 1.0 mg/kg IP): 36.1%
LIGHT-DARK MOVEMENTS ([2]; 1.0 mg/kg IP): 19.9
MOV. DARK % TOTAL MOV. ([2]; 1.0 mg/kg IP): 55%
TOTAL MOVEMENTS ([2]; 1.0 mg/kg IP): 493
EFF. % VS CONTROL (LIGHT TIME TOTAL TIME) ([2]; 10.0 mg/kg IP): 26%
EFF. % VS CONTROL (LIGHT-DARK MOVEMENTS) ([2]; 10.0 mg/kg IP): 16%
EFF. % VS CONTROL (MOV. DARK % TOTAL MOV.) ([2]; 10.0 mg/kg IP): -7%
LIGHT TIME TOTAL TIME ([2]; 10.0 mg/kg IP): 33.5%
LIGHT-DARK MOVEMENTS ([2]; 10.0 mg/kg IP): 17.7
MOV. DARK % TOTAL MOV. ([2]; 10.0 mg/kg IP): 55%
TOTAL MOVEMENTS ([2]; 10.0 mg/kg IP): 503
anxiolytic activity, result in words [2]: anxiolytic activity without sedative activity
increase in the number of light-dark movements in comparison with the controls [2]: 20-30%
ED50 [3]: 12.3 mg/kg and 22.6 µmol/kg
antigastrin activity relative to the diastereoisomer at the carbon atom (**) [3]: about twice

Ratio IC50 Binding cortex / IC50 (gastric mucous cells) [1]: 4.0
CCK-B-antagonistic activity IC50 (II) [1]: 10 nM
IC50 order of magnitude, peripheral antigastrin activity ([1]; rabbit gastric mucous cells): nanomolar order of magnitude
IC50, inhibition of the increase of cytosolic calcium [1]: 10 nM
Structure (SMILES): O=C(CC[C@@H](NC(=O)c1cc(Cl)cc(Cl)c1)C(=O)N1CCC2(CCCC2)CC1)N[C@H](Cc1c[nH]c2ccccc12)C(=O)O [Compound 21]
EFF. % VS CONTROL (LIGHT TIME TOTAL TIME) ([2]; 0.03 mg/kg IP): 11%
EFF. % VS CONTROL (LIGHT-DARK MOVEMENTS) ([2]; 0.03 mg/kg IP): 26%
EFF. % VS CONTROL (MOV. DARK % TOTAL MOV.) ([2]; 0.03 mg/kg IP): -6%
LIGHT TIME TOTAL TIME ([2]; 0.03 mg/kg IP): 28.9%
LIGHT-DARK MOVEMENTS ([2]; 0.03 mg/kg IP): 18.2
MOV. DARK % TOTAL MOV. ([2]; 0.03 mg/kg IP): 62%
TOTAL MOVEMENTS ([2]; 0.03 mg/kg IP): 522
EFF. % VS CONTROL (LIGHT TIME TOTAL TIME) ([2]; 0.3 mg/kg IP): 30%
EFF. % VS CONTROL (LIGHT-DARK MOVEMENTS) ([2]; 0.3 mg/kg IP): 37%
EFF. % VS CONTROL (MOV. DARK % TOTAL MOV.) ([2]; 0.3 mg/kg IP): -1.1%
LIGHT TIME TOTAL TIME ([2]; 0.3 mg/kg IP): 33.9%
LIGHT-DARK MOVEMENTS ([2]; 0.3 mg/kg IP): 19.8
MOV. DARK % TOTAL MOV. ([2]; 0.3 mg/kg IP): 57%
TOTAL MOVEMENTS ([2]; 0.3 mg/kg IP): 499
EFF. % VS CONTROL (LIGHT TIME TOTAL TIME) ([2]; 3.0 mg/kg IP): 24%
EFF. % VS CONTROL (LIGHT-DARK MOVEMENTS) ([2]; 3.0 mg/kg IP): 26%
EFF. % VS CONTROL (MOV. DARK % TOTAL MOV.) ([2]; 3.0 mg/kg IP): -9%
LIGHT TIME TOTAL TIME ([2]; 3.0 mg/kg IP): 32.4%
LIGHT-DARK MOVEMENTS ([2]; 3.0 mg/kg IP): 18.2
MOV. DARK % TOTAL MOV. ([2]; 3.0 mg/kg IP): 60%
TOTAL MOVEMENTS ([2]; 3.0 mg/kg IP): 495
anxiolytic activity, result in words [2]: anxiolytic activity without sedative activity
increase in the number of light-dark movements in comparison with the controls [2]: 20-30%
ED50 [3]: 7.9 mg/kg and 12.6 µmol/kg
antigastrin activity relative to the diastereoisomer at the carbon atom (**) [3]: almost the same antigastrin activity

Reference: patent US5962502A, “Polyamidic acid derivatives with antigastrin activity, a method for their preparation, and their pharmaceutical use” (priority 1993, dated 1999)
